From patent US20210230526A1, “Cell enclosure device and use for same” (National Agriculture and Food Research Organization, priority 2016, published 2021)

System: HepG2 cells
Assay: Metabolism of model drug (fluorescein diacetate) by HepG2 cell hepatic tissue-type chip and excretion and accumulation of metabolites to bile canaliculus-like structure
Format: in vitro ADME, human
Conditions: for distribution of fluorescein metabolized by HepG2 cells (green fluorescence): 1 hour uptake, after washing twice
Description: (1) A culture medium containing fluorescein diacetate (FD) as a model drug at a concentration of 250 μg/mL was prepared, and 5 mL thereof was poured into a dish (60 mm in diameter ).
(2) Next, the hepatic tissue-type chip on day 7 of culturing produced using HepG2 cells in Example 1 was immersed in the FD-containing culture medium prepared in (1) and cultured for 1 hour, such that the FD was taken into the cells.
(3) Next, the chip was transferred into a new dish (diameter: 60 mm), into which 5 mL of Hank's Balanced Salt Solution (HBSS) was poured, and washed.
(4) Next, the hepatic tissue-type chip was transferred into a new dish (diameter 60 mm ) into which 5 mL of a fresh culture medium was poured, immersed in the culture medium, and cultured for 1 hour. The discharging of fluorescein in the cells after 1 hour was confirmed by observation with a phase contrast microscope and a fluorescence microscope (refer to FIG. 8(A) to FIG. 8(C)).
(1) HBSS containing fluorescein diacetate (FD) as a model drug at a concentration of 25 μg/mL was prepared, and 5 mL thereof was poured into a dish (60 mm in diameter).
(2) Next, on day 32 of culturing, the hepatic tissue-type chip produced using HepG2 cells in Example 3 was immersed in the FD-containing HBSS prepared in (1) and cultured for 1 hour such that the FD was taken into the cells.
(3) Next, the result was transferred into a new dish (diameter 60 mm) into which 5 mL of HBSS was poured, and washed.
(4) Next, the hepatic tissue-type chip was transferred into a new dish (diameter 60 mm) into which 5 mL of fresh HBSS was poured, immersed in HBSS, and cultured for 1 hour. The discharge of fluorescein in the cells after 1 hour was confirmed by observation with a phase contrast microscope and a fluorescence microscope (refer to FIG. 12A (phase contrast microscope image) and FIG. 12B (fluorescence microscope image)). […]

O=C1OC2(c3ccc(O)cc3Oc3cc(O)ccc32)c2ccccc21 [fluorescein]
excretion of fluorescein from the cells (Example 2, chip on day 7 of culturing, 1 hour further culture in fresh culture medium after washing): excreted and accumulated in the bile canaliculus-like structure | distribution of fluorescein metabolized by HepG2 cells (green fluorescence) (Example 2, chip on day 7 of culturing, FD 250 μg/mL in culture medium): uniformly distributed in the cytoplasm | excretion of fluorescein from the cells (Example 4, chip on day 32 of culturing, 1 hour further culture in fresh HBSS after washing): excreted and accumulated in the bile canaliculus-like structure | distribution of fluorescein metabolized by HepG2 cells (green fluorescence) (Example 4, chip on day 32 of culturing, FD 25 μg/mL in HBSS): uniformly distributed in the cytoplasm | excretion of fluorescein from the cells (Example 10, chip on day 35 of culturing, 1 hour further culture in fresh HBSS after washing): excreted and accumulated in the bile canaliculus-like structure | distribution of fluorescein metabolized by HepG2 cells (green fluorescence) (Example 10, chip on day 35 of culturing, FD 25 μg/mL in HBSS): uniformly distributed in the cytoplasm
